According to patent US7517889B2, “2,6-substituted-4-monosubstitutedamino-pyrimidine as prostaglandin D2 receptor antagonists” (Aventis Pharmaceuticals, Inc., priority 2004, dated 2009):
Structures can show the parent of a compound that is named as a salt.

Biological target: T1, DP receptor (Homo sapiens, UniProt Q13258)
T1 construct: the human cell line LS174T, which expresses the endogenous DP receptor; endogenous in cells; host or cells: LS174T human cell line
T1 sequence (Q13258 1-359): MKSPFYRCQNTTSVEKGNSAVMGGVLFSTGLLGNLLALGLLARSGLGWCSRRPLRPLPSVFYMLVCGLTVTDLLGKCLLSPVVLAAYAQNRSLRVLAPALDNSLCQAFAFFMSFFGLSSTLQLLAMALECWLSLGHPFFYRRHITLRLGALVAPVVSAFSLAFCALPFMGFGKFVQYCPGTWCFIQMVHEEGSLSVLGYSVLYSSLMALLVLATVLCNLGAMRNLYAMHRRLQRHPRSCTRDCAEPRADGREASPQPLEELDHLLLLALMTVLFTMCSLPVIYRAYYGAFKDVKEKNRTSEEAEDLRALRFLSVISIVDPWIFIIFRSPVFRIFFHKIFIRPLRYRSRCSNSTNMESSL
Assay: SPA cAMP assay in human LS174 T cells (human DP functional assay)
Format: cell-based
Conditions: inhibition of PGD2 (15 nM final) stimulated cAMP, LS174T cells expressing endogenous DP receptor
Protocol: The inhibitory effects of the compounds according to the invention are assessed in a human DP functional assay. A cAMP assay is employed using the human cell line LS174T, which expresses the endogenous DP receptor.
Protocol for SPA cAMP Assay in Human LS174 T Cells
• 1) Add equal volumes of tracer, antiserum and SPA anti-rabbit reagent to a bottle, ensuring that a sufficient volume of this mixture is prepared for the desired number of wells (150 μL/well). • 2) Mix thoroughly. • 3) This immunoreagent solution should be freshly prepared before each assay and not re-used.
Add 50 μL of […] IBMX into 100 mL PBS to make a final concentration of 100 μM and sonicate at 30° C. for 20 minutes.
Before each assay, it is freshly prepared. Add 3 μL of 10 mM stock solution to 20 mL DMSO, mix it thoroughly, and transfer 10 mL to 40 mL PBS.
Compound dilution is carried out in Biomex 2000 (Beckman) using Method 1_cAMP DP 11 points.
5 μL of each compound from the 10 mM stock compound plates is transferred to the wells of a 96-well plate respectively as below.
Fill the plate with 45 μL of DMSO except column 7 is filled with 28 μL DMSO. Pipette column 1 thoroughly, and transfer 12 μL into column 7 parallel. Perform 1:10 serial dilution from column 1 to column 6 and from column 7 to column 11 by transfer 5 μL to 45 μL DMSO to make following concentrations:
Fill a new 96-well plate with 247.5 μL of compound dilution buffer. Transfer 2.5 μL of serially diluted compounds from above plate to the new plate (1:100 dilution) as following:
Cell Growth • 1. […] Remove growth medium from cells. Cells in T165 flask are washed twice with 4 mL Trypsin followed by incubation at 37° C. and 5% CO2 for 3 minutes. • 4. Add 10 mL of medium and pipette thoroughly to separate the cells and count the cells. • 5. […] Assay Procedure Day 1 • Seed 45,000 cells/well in 200 μL medium in 96-well plates. Incubate the cell plate at 37° C., 5% CO2 and 95% humidity overnight. Day 2 • 1. Perform compound dilution. • 2. Prepare assay buffer, lysis buffer 1 & 2, PGD2 and standard. • 3. Aspirate media from the cells and add 100 μL of compound solution using Zymark Sciclone-ALH/FD protocol cAMP DP. • 4. Incubate the cells at 37° C., 5% CO2 and 95% humidity for 15 minutes. • 5. […] Aspirate media from the cells and add 50 μL of lysis buffer 1 using Zymark protocol cAMP DP lysis, and incubate at room temperature with shaking for 30 minutes. • 7. Add 150 μL immunoreagent to all wells (a total volume of 200 μL/well). • 8. Seal the plates and shake for 2 minutes, put into the chamber of the Wallac microtitre plate μ scintillation counter for 16 hours. […] Data Processing Set up standard curve of cAMP versus CPM.
The cAMP concentrations (pmol/mL) of unknown samples are calculated from a standard curve of cAMP versus CPM. % inhibition is calculated using the following formula: […]

Row | SMILES | IC50
1 | COc1ccc(CCNc2cc(-c3ccc(F)c(CNCCN(C)C)c3)nc(OC)n2)cc1 [Example 13(d), N-(2-Fluoro-5-{2-methoxy-6-[2-(4-methoxy-phenyl)-ethylamino]-pyrimidin-4-yl}-benzyl)-N′,N′-dimethyl-ethane-1,2-diamine hydrochloride] | 56 nM
2 | CCOc1nc(NCCc2ccc(OC)c(OC)c2)cc(-c2ccc(OC)c(OC)c2)n1 [Example 17(b), [6-(3,4-Dimethoxy-phenyl)-2-ethoxy-pyrimidin-4-yl]-[2-(3,4-dimethoxy-phenyl)-ethyl]-amine] | 655 nM
3 | COc1ccc(CCNc2cc(-c3ccc(F)c(/C=N\O)c3)nc(OC)n2)cc1 [Example 26, 2-Fluoro-5-{2-methoxy-6-[2-(4-methoxy-phenyl)-ethylamino]-pyrimidin-4-yl}-benzaldehyde oxime] | 4.5 nM
4 | COc1nc(NCCc2ccc(OC)c(OC)c2)cc(-c2ccc(-c3ccccc3)cc2)n1 [Example 35(e), (6-Biphenyl-4-yl-2-methoxy-pyrimidin-4-yl)-[2-(3,4-dimethoxy-phenyl)-ethyl]-amine] | 369 nM
5 | CCOC(=O)C(C)(C)Oc1cccc(-c2cc(NCCc3ccc(OC)cc3)nc(OC)n2)c1 [Example 22(a), 2-(3-{2-Methoxy-6-[2-(4-methoxy-phenyl)-ethylamino]-pyrimidin-4-yl}-phenoxy)-2-methyl-propionic acid ethyl ester] | 60 nM
6 | CC(C)(C(=O)O)c1cccc(-c2cc(NCCc3ccc(Cl)cc3Cl)nc(CO)n2)c1 [Example 86, 2-(3-{6-[2-(2,4-dichloro-phenyl)-ethylamino]-2-hydroxymethyl-pyrimidin-4-yl}-phenyl)-2-methyl-propionic acid] | 71 nM
7 | CCc1nc(NCCc2ccc(OC)cc2)cc(-c2cccc(OC)c2)n1 [Example 18, [2-Ethyl-6-(3-methoxy-phenyl)-pyrimidin-4-yl]-[2-(4-methoxy-phenyl)-ethyl]-amine] | 219 nM

Continued, values first:

Row | IC50 | SMILES
8 | 0.4 nM | COc1nc(NCCc2ccc(OC)c(F)c2)cc(-c2cccc(-c3nn[nH]n3)c2)n1 [Example 40, [2-(3-Fluoro-4-methoxy-phenyl)-ethyl]-{2-methoxy-6-[3-(2H-tetrazol-5-yl)-phenyl]-pyrimidin-4-yl}-amine]
9 | 0.4 nM | COc1ccc(CCNc2cc(-c3ccsc3/C=N/O)nc(OC)n2)cc1 [Example 26(d), 3-{2-Methoxy-6-[2-(4-methoxy-phenyl)-ethylamino]-pyrimidin-4-yl}-thiophene-2-carbaldehyde oxime]
10 | 0.3 nM | COc1nc(NCCc2ccc(Cl)cc2Cl)cc(-c2cccc(C(=O)O)c2)n1 [Example 35(w), 3-{6-[2-(2,4-dichloro-phenyl)-ethylamino]-2-methoxy-pyrimidin-4-yl}-benzoic acid]
11 | 44 nM | COc1ccc(CCNc2cc(-c3ccc(CN4CCCC4)s3)nc(OC)n2)cc1 [Example 13(a), [2-(4-Methoxy-phenyl)-ethyl]-[2-methoxy-6-(5-pyrrolidin-1-ylmethyl-thiophen-2-yl)-pyrimidin-4-yl]-amine]
12 | 4.8 nM | COc1nc(NCCc2ccc(OC(F)(F)F)cc2)cc(-c2cccc(NC(C)=O)c2)n1 [Example 6(a), N-(3-{2-Methoxy-6-[2-(4-trifluoromethoxy-phenyl)-ethylamino]-pyrimidin-4-yl}phenyl)-acetamide]
13 | 8 nM | COc1ccc(CCNc2cc(-c3ccncc3)nc(OC)n2)cc1 [Example 35(q), [2-(4-Methoxy-phenyl)-ethyl]-(2-methoxy-6-pyridin-4-yl-pyrimidin-4-yl)-amine]
14 | 0.6 nM | COC(=O)COc1cccc(-c2cc(NCCc3ccc(Cl)cc3Cl)nc(OC)n2)c1 [Example 22(c), (3-{6-[2-(2,4-Dichloro-phenyl)-ethylamino]-2-methoxy-pyrimidin-4-yl}-phenoxy)-acetic acid methyl ester]
15 | < 1 nM | COc1nc(NCCc2ccc(Cl)cc2Cl)cc(-c2cccc(C3(C(=O)NS(C)(=O)=O)CCOCC3)c2)n1 [Example 80(b), N-[4-(3-{6-[2-(2,4-Dichloro-phenyl)-ethylamino]-2-methoxy-pyrimidin-4-yl}-phenyl)-tetrahydro-pyran-4-carbonyl]-methanesulfonamide]
